According to ChEMBL document CHEMBL1140417, “Total and semisynthesis and in vitro studies of both enantiomers of 20-fluorocamptothecin” (Bioorg Med Chem Lett, 2005):
Activity calls are given as the source filed them. The rule behind the calls is not given here.

These molecules were tested against T1, DNA topoisomerase 1 (Homo sapiens) (UniProt P11387) (assay: Inhibition of topoisomerase-1 at 100 uM).
T1 sequence (whole entry): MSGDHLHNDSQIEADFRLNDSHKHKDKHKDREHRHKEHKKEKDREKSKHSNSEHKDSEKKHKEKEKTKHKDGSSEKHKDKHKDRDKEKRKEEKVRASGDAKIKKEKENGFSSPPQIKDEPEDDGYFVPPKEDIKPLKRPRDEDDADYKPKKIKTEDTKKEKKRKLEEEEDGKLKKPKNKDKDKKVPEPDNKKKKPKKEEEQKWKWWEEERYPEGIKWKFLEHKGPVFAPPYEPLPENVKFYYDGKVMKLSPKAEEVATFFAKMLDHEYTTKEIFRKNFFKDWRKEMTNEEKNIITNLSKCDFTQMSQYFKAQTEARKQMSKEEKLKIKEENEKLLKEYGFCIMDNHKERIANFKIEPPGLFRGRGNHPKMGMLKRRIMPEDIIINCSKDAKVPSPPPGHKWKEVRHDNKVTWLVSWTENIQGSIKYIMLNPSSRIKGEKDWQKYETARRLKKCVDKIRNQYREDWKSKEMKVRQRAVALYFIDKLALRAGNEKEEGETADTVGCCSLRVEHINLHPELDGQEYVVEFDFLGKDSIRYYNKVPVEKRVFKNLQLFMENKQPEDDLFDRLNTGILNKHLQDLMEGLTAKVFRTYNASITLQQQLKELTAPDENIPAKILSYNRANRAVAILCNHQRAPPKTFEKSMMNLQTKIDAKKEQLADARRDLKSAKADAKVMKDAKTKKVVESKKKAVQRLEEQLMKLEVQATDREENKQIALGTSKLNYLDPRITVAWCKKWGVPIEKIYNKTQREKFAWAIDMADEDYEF
`CC[C@]1(F)C(=O)OCc2c1cc1n(c2=O)Cc2cc3c4c(ccc3nc2-1)OCO4` was tested, and the Activity was “inactive”.
In the case of `CC[C@]1(F)C(=O)OCc2c1cc1n(c2=O)Cc2c-1nc1ccc(O)cc1c2[Si](C)(C)C(C)(C)C`, the Activity is reported as “inactive”.
In the case of `CC[C@@]1(F)C(=O)OCc2c1cc1n(c2=O)Cc2cc3ccccc3nc2-1`, the Activity is reported as “Active”.
With `CC[C@]1(F)C(=O)OCc2c1cc1n(c2=O)Cc2cc3cc(F)ccc3nc2-1` the Activity was “inactive”.
With `CC[C@]1(F)C(=O)OCc2c1cc1n(c2=O)Cc2cc3ccccc3nc2-1` the Activity was “inactive”.
For `CC[C@]1(F)C(=O)OCc2c1cc1n(c2=O)Cc2cc3cc4c(cc3nc2-1)OCO4`, the Activity was “inactive”.
